According to ChEMBL document CHEMBL1641396, “4-Oxo-1,4-dihydropyridines as selective CB2 cannabinoid receptor ligands: structural insights into the design of a novel inverse agonist series” (J Med Chem, 2010):

Experiments:
Cannabinoid receptor 1 = Cannabinoid receptor 1 (Homo sapiens, UniProt P21554); assay: Displacement of [3H]-SR141716A from human CB1 receptor expressed in CHO cells after 1 hr; type: cell-based
Cannabinoid receptor 2 [1] = molecular target: T1, Cannabinoid receptor 2 (Homo sapiens, UniProt P34972); assay: Agonist activity at human CB2 receptor expressed in CHO cells assessed as stimulation of [35S]-GTPgammaS binding relative to basal activity; type: functional, cell-based
Cannabinoid receptor 2 [2] = molecular target: T1, Cannabinoid receptor 2; assay: Displacement of [3H]-CP55940 from human CB2 receptor expressed in CHO cells after 1 hr; type: cell-based
Cannabinoid receptor 2 [3] = molecular target: T1, Cannabinoid receptor 2; assay: Agonist activity at human CB2 receptor expressed in CHO cells assessed as stimulation of [35S]-GTPgammaS binding; type: functional, cell-based

Chain of Cannabinoid receptor 1 (P21554 whole entry): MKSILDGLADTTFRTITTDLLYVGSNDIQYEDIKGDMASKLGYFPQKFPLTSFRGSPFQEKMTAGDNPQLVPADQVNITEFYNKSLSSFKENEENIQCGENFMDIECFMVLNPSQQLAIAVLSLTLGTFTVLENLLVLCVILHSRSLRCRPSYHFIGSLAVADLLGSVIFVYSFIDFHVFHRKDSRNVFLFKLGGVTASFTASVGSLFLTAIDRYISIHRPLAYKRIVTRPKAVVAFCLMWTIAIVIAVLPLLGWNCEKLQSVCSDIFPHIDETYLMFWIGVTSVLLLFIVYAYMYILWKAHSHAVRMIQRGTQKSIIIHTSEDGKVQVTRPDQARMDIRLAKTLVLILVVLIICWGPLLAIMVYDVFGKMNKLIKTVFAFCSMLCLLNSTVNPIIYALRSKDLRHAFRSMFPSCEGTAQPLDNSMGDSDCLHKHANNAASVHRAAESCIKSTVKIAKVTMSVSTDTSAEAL
T1 sequence (P34972 whole entry): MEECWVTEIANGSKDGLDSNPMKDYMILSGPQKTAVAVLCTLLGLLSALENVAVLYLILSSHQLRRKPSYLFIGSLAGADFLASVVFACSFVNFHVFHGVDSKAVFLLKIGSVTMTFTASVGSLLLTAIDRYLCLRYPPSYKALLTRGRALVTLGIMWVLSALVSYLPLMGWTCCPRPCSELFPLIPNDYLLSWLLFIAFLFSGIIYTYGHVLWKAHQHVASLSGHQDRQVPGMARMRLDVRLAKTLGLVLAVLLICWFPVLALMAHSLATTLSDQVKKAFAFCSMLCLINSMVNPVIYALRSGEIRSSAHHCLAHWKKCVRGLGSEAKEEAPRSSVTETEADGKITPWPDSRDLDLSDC

**Q.** With `CCCCCn1cc(C(=O)NC2CCCCC2)c(=O)cc1C(C)(C)C` as the compound, how does the Ki (Cannabinoid receptor 1) read?
**A.** > 3000 nM

**Q.** For `CCCCCn1cc(C(=O)NC23CC4CC(CC(C4)C2)C3)c(=O)cc1C`, which Ki (Cannabinoid receptor 1) is on record?
**A.** > 3000 nM

**Q.** What about the Emax (Cannabinoid receptor 2 [1]) of the same compound?
**A.** 148%

**Q.** With `CCCCn1cc(C(=O)NC23CC4CC(CC(C4)C2)C3)c(=O)cc1-c1ccccc1` as the compound, how does the Ki (Cannabinoid receptor 1) read?
**A.** > 1000 nM

**Q.** Which Ki (Cannabinoid receptor 1) does the source give for `CCCCCn1cc(C(=O)NC2CCCCC2)c(=O)cc1-c1ccccc1` here?
**A.** 929 nM

**Q.** And the Emax (Cannabinoid receptor 2 [1])?
**A.** 62%

**Q.** Which Emax (Cannabinoid receptor 2 [1]) does the source give for `Cc1c(C(=O)c2cccc3ccccc23)c2cccc3c2n1[C@H](CN1CCOCC1)CO3` here?
**A.** 207%

**Q.** How did the Emax (Cannabinoid receptor 2 [1]) turn out when `CCCCCCC(C)(C)c1ccc([C@@H]2C[C@H](O)CC[C@H]2CCCO)c(O)c1` was run?
**A.** 230%

**Q.** Which results are given for `CCCCCn1cc(NC(=O)OC(C)(C)C)c(=O)cc1-c1ccccc1`?
**A.** Ki (Cannabinoid receptor 1): > 3000 nM; Ki (Cannabinoid receptor 2 [2]): 209 nM; EC50 (Cannabinoid receptor 2 [3]): 164 nM; Emax (Cannabinoid receptor 2 [1]): 26%

**Q.** `CCn1cc(C(=O)NC(C)C23CC4CC(CC(C4)C2)C3)c(=O)cc1-c1ccccc1` (racemic) was tested. Which Ki (Cannabinoid receptor 1) did it give?
**A.** > 3000 nM

**Q.** How did the Ki (Cannabinoid receptor 1) turn out when `CCCCCn1cc(NC(=O)C2CCCCC2)c(=O)cc1-c1ccccc1` was run?
**A.** > 3000 nM

**Q.** What about the Ki (Cannabinoid receptor 2 [2]) of the same compound?
**A.** 51 nM

**Q.** And the EC50 (Cannabinoid receptor 2 [3])?
**A.** 25 nM

**Q.** And the Emax (Cannabinoid receptor 2 [1])?
**A.** 43%

**Q.** For `CCCCCn1cc(C(=O)NC23CC4CC(CC(C4)C2)C3)c(=O)cc1C(C)(C)C`, which Ki (Cannabinoid receptor 1) is on record?
**A.** > 3000 nM

**Q.** And the Emax (Cannabinoid receptor 2 [1])?
**A.** 212%

**Q.** How did the Ki (Cannabinoid receptor 1) turn out when `CCCCCn1cc(C(=O)NC2CCCCC2)c(=S)cc1-c1ccccc1` was run?
**A.** > 1000 nM

**Q.** What about the Ki (Cannabinoid receptor 2 [2]) of the same compound?
**A.** 48 nM

**Q.** What about the EC50 (Cannabinoid receptor 2 [3]) of the same compound?
**A.** 27 nM

**Q.** And the Emax (Cannabinoid receptor 2 [1])?
**A.** 45%

**Q.** Which results are given for `CCCCCn1cc(C(=O)NC23CC4CC(CC(C4)C2)C3)c(=O)cc1-c1ccccc1Cl`?
**A.** Ki (Cannabinoid receptor 1): 34.4 nM; Ki (Cannabinoid receptor 2 [2]): 0.7 nM

**Q.** How did the Ki (Cannabinoid receptor 1) turn out when `CCCCCCn1cc(C(=O)NC23CC4CC(CC(C4)C2)C3)c(=O)cc1-c1ccccc1` was run?
**A.** 596 nM

**Q.** For `CCCCCn1cc(C(=O)NC23CC4CC(CC(C4)C2)C3)c(=O)cc1-c1ccc(OC)cc1`, which Ki (Cannabinoid receptor 1) is on record?
**A.** 384 nM

**Q.** And the Ki (Cannabinoid receptor 2 [2])?
**A.** 91.1 nM

**Q.** With `CCCCCn1cc(C(=O)NC(C)C23CC4CC(CC(C4)C2)C3)c(=O)cc1-c1ccccc1` (racemic) as the compound, how does the Ki (Cannabinoid receptor 1) read?
**A.** 368 nM

**Q.** What about the Emax (Cannabinoid receptor 2 [1]) of the same compound?
**A.** 46%

**Q.** Which Ki (Cannabinoid receptor 1) does the source give for `CCCCCn1cc(C(=O)Nc2cccc(C(F)(F)F)c2)c(=O)cc1-c1ccc(Cl)cc1` here?
**A.** > 1000 nM

**Q.** What about the Ki (Cannabinoid receptor 2 [2]) of the same compound?
**A.** > 1000 nM

**Q.** What about the EC50 (Cannabinoid receptor 2 [3]) of the same compound?
**A.** 158 nM

**Q.** And the Emax (Cannabinoid receptor 2 [1])?
**A.** 42%

**Q.** With `CCCCCn1cc(C(=O)Nc2cccc(C(F)(F)F)c2)c(=O)cc1-c1ccccc1` as the compound, how does the Ki (Cannabinoid receptor 1) read?
**A.** > 3000 nM

**Q.** And the Ki (Cannabinoid receptor 2 [2])?
**A.** 25.8 nM

**Q.** What about the EC50 (Cannabinoid receptor 2 [3]) of the same compound?
**A.** 14 nM

**Q.** What about the Emax (Cannabinoid receptor 2 [1]) of the same compound?
**A.** 42%

**Q.** For `CC(NC(=O)c1cn(-c2ccccc2)c(-c2ccccc2)cc1=O)C12CC3CC(CC(C3)C1)C2` (racemic), which Ki (Cannabinoid receptor 1) is on record?
**A.** > 3000 nM

**Q.** And the Ki (Cannabinoid receptor 2 [2])?
**A.** > 3000 nM

**Q.** For `CCCCCn1cc(C(=O)NC2CCCCC2)c(=O)cc1-c1ccc(Cl)cc1`, which Ki (Cannabinoid receptor 1) is on record?
**A.** > 1000 nM

**Q.** And the Emax (Cannabinoid receptor 2 [1])?
**A.** 39%

**Q.** With `CCCCCn1cc(C(=O)NCC23CC4CC(CC(C4)C2)C3)c(=O)cc1-c1ccccc1` as the compound, how does the Ki (Cannabinoid receptor 1) read?
**A.** 626 nM

**Q.** `CCCCCn1cc(C(=O)NC23CC4CC(CC(C4)C2)C3)c(=S)cc1-c1ccccc1` was tested. Which Ki (Cannabinoid receptor 1) did it give?
**A.** > 1000 nM

**Q.** What about the Ki (Cannabinoid receptor 2 [2]) of the same compound?
**A.** 18.8 nM

**Q.** What about the EC50 (Cannabinoid receptor 2 [3]) of the same compound?
**A.** 17 nM

**Q.** And the Emax (Cannabinoid receptor 2 [1])?
**A.** 30%

**Q.** Which Ki (Cannabinoid receptor 2 [2]) does the source give for `CCCC(C)(C)c1ccc2c(c1)OC(C)(C)[C@@H]1CC=C(O)C[C@@H]21` here?
**A.** 20.3 nM

**Q.** What about the EC50 (Cannabinoid receptor 2 [3]) of the same compound?
**A.** 146 nM

**Q.** And the Emax (Cannabinoid receptor 2 [1])?
**A.** 201%

**Q.** How did the Ki (Cannabinoid receptor 1) turn out when `CCCCCn1cc(C(=O)N[C@H]2CCCc3ccccc32)c(=O)cc1-c1ccccc1` was run?
**A.** > 1000 nM

**Q.** And the Emax (Cannabinoid receptor 2 [1])?
**A.** 48%

**Q.** Which results are given for `CCCCCn1cc(C(=O)N[C@@H]2CCCc3ccccc32)c(=O)cc1-c1ccccc1`?
**A.** Ki (Cannabinoid receptor 1): 131 nM; Emax (Cannabinoid receptor 2 [1]): 42%

**Q.** For `CCCCCn1cc(C(=O)NN2CCCCC2)c(=O)cc1-c1ccccc1`, which Ki (Cannabinoid receptor 1) is on record?
**A.** > 3000 nM

**Q.** What about the Emax (Cannabinoid receptor 2 [1]) of the same compound?
**A.** 48%

**Q.** With `CCCCCn1cc(C(=O)NC23CC4CC(CC(C4)C2)C3)c(=O)cc1-c1ccc(Cl)cc1` as the compound, how does the Ki (Cannabinoid receptor 1) read?
**A.** > 1000 nM

**Q.** With `CCCCCn1cc(C(=O)NC23CC4CC(CC(C4)C2)C3)c(=O)cc1-c1ccccc1` as the compound, how does the Ki (Cannabinoid receptor 1) read?
**A.** 592 nM

**Q.** Which Ki (Cannabinoid receptor 1) does the source give for `CCCCCn1cc(C(=O)NC23CC4CC(CC(C4)C2)C3)c(=O)cc1-c1ccc(C)cc1` here?
**A.** 134 nM

**Q.** And the Ki (Cannabinoid receptor 2 [2])?
**A.** 13.2 nM

**Q.** For `CCCCCn1cc(C(=O)NC23CC4CC(CC(C4)C2)C3)c(=O)cc1-c1cccc(Cl)c1`, which Ki (Cannabinoid receptor 1) is on record?
**A.** 51.2 nM

**Q.** What about the Ki (Cannabinoid receptor 2 [2]) of the same compound?
**A.** 1.8 nM
